Data: paper PMC7093416, “Selective USP7 inhibition elicits cancer cell killing through a p53-dependent mechanism” (Scientific Reports, 2020)

Tested on: panel of 484 cancer cell lines
Experiment: PRISM cancer cell line profiling, 5 days
Format: cell-based
Design: AUC: unit not given beside the values
Description: Cancer cell line profiling was performed using the Broad’s PRISM platform. Cell treatment and data analysis were performed as described in Yu et al[42]. Raw Luminex signal was converted to AUC values for each cell line as described. The resulting AUC profile for each compound was modeled against DepMap using the limma package in R[71]. Because hotspot mutation analysis was performed against DepMap, TP53 annotations in Fig. 6c,d are directly from DepMap.

COc1ccc(C2=N[C@@H](c3ccc(Cl)cc3)[C@@H](c3ccc(Cl)cc3)N2C(=O)N2CCNC(=O)C2)c(OC(C)C)c1 [Nutlin-3A]
AUC (LCLC103H_LUNG): 1.118 | AUC (LI7_LIVER): 1.226 | AUC (LK2_LUNG): 1.169 | AUC (LMSU_STOMACH): 1.203 | AUC (LN18_CENTRAL_NERVOUS_SYSTEM): 0.9973 | AUC (LN229_CENTRAL_NERVOUS_SYSTEM): 1.064 | AUC (LNCAPCLONEFGC_PROSTATE): 0.906 | AUC (LOUNH91_LUNG): 1.066 | AUC (LOVO_LARGE_INTESTINE): 1.199 | AUC (LOXIMVI_SKIN): 0.8907 | AUC (LS180_LARGE_INTESTINE): 0.8897 | AUC (LS411N_LARGE_INTESTINE): 1.29 | AUC (LS513_LARGE_INTESTINE): 0.8844 | AUC (LS1034_LARGE_INTESTINE): 1.251 | AUC (LU99_LUNG): 0.8923 | AUC (LUDLU1_LUNG): 1.181 | AUC (LXF289_LUNG): 1.109 | AUC (MALME3M_SKIN): 0.9143 | AUC (MCAS_OVARY): 1.217 | AUC (MCF7_BREAST): 0.9374 | AUC (MDAMB175VII_BREAST): 0.8089 | AUC (MDAMB231_BREAST): 1.111 | AUC (MDAMB435S_SKIN): 1.081 | AUC (MDAMB436_BREAST): 1.063 | AUC (MDAMB468_BREAST): 1.113 | AUC (MELHO_SKIN): 1.198 | AUC (MELJUSO_SKIN): 0.855 | AUC (MESSA_SOFT_TISSUE): 0.8635 | AUC (MEWO_SKIN): 1.1265 | AUC (MFE280_ENDOMETRIUM): 1.185 | AUC (MFE296_ENDOMETRIUM): 1.073 | AUC (MFE319_ENDOMETRIUM): 1.2827 | AUC (MG63_BONE): 1.195 | AUC (MHHES1_BONE): 1.218 | AUC (MIAPACA2_PANCREAS): 1.097 | AUC (MKN1_STOMACH): 1.379 | AUC (MKN7_STOMACH): 1.0858 | AUC (MKN45_STOMACH): 0.8665 | AUC (MKN74_STOMACH): 1.252 | AUC (MON_SOFT_TISSUE): 0.7179 | AUC (MPP89_PLEURA): 1.087 | AUC (MSTO211H_PLEURA): 0.822 | AUC (NB1_AUTONOMIC_GANGLIA): 0.8777 | AUC (NCIH23_LUNG): 0.9857 | AUC (NCIH28_PLEURA): 0.8619 | AUC (NCIH226_LUNG): 0.8738 | AUC (NCIH292_LUNG): 0.8581 | AUC (NCIH322_LUNG): 1.162 | AUC (NCIH358_LUNG): 1.107 | AUC (NCIH446_LUNG): 1.181 | AUC (NCIH460_LUNG): 0.8926 | AUC (NCIH520_LUNG): 1.322 | AUC (NCIH522_LUNG): 1.212 | AUC (NCIH596_LUNG): 1.199 | AUC (NCIH650_LUNG): 1.249 | AUC (NCIH661_LUNG): 1.081 | AUC (NCIH727_LUNG): 1.026 | AUC (NCIH747_LARGE_INTESTINE): 1.189 | AUC (NCIH838_LUNG): 0.9622 | AUC (NCIH841_LUNG): 1.117 | AUC (NCIH1048_LUNG): 1.2735 | AUC (NCIH1299_LUNG): 1.108 | AUC (NCIH1339_LUNG): 1.0925 | AUC (NCIH1355_LUNG): 1.119 | AUC (NCIH1373_LUNG): 1.06 | AUC (NCIH1435_LUNG): 1.3405 | AUC (NCIH1437_LUNG): 1.108 | AUC (NCIH1563_LUNG): 0.9521 | AUC (NCIH1568_LUNG): 1.038 | AUC (NCIH1573_LUNG): 1.073 | AUC (NCIH1581_LUNG): 1.043 | AUC (NCIH1623_LUNG): 1.145 | AUC (NCIH1648_LUNG): 1.123 | AUC (NCIH1650_LUNG): 0.973 | AUC (NCIH1651_LUNG): 1.183 | AUC (NCIH1693_LUNG): 1.133 | AUC (NCIH1703_LUNG): 1.137 | AUC (NCIH1792_LUNG): 1.259 | AUC (NCIH1793_LUNG): 1.1676 | AUC (NCIH1838_LUNG): 1.199 | AUC (NCIH1915_LUNG): 1.099 | AUC (NCIH1944_LUNG): 0.8303 | AUC (NCIH1975_LUNG): 1.115 | AUC (NCIH2009_LUNG): 0.9703 | AUC (NCIH2023_LUNG): 1.159 | AUC (NCIH2030_LUNG): 1.1142 | AUC (NCIH2052_PLEURA): 0.8463 | AUC (NCIH2077_LUNG): 0.9696 | AUC (NCIH2087_LUNG): 1.211 | AUC (NCIH2110_LUNG): 1.143 | AUC (NCIH2122_LUNG): 0.8016 | AUC (NCIH2126_LUNG): 1.1108
